Laboratory results taken from US20260355329A1, “PRODRUG LINKER COMPOSITIONS AND METHODS OF USE” (priority 2023, published 2026).
pEC50: −log10 of the molar value. In brackets after ≈: the same amount, converted by molar mass. Entries after “also recorded” stand apart in the source; their conditions may differ. Peptide text beside a SMILES is read from it. * marks the point of attachment. ACC = NC(=O)Cc1cc(=O)oc2cc(N*)ccc12

Key:
[1] = Release of ACC from Ac-Linker-ACC conjugates in mouse serum (serum stability); format: in vitro ADME; settings: role: substrate; 50% mouse serum, 8 h
Method: (§1) With the hit candidate in-hand, scarless cleavage was assessed with the turn-on fluorescent probe 7-amino-4-carbamoylmethylcoumarin (ACC), which only fluoresces when the ACC fluorophore is cleaved without an amino acid scar. To discover a scarless linker for LEHELGN (SEQ ID NO: 7), the following ACC conjugates (FIG. 9) were synthesized and cleavage rates were compared in 50% mouse serum and A. baumannii periplasmic extracts (FIGS. 10 and 11): Ac-LEHELGN-ACC (SEQ ID NO: 8), Ac-LEHELG-ACC (SEQ ID NO: 9), Ac-LEHEL-ACC (SEQ ID NO: 10), Ac-LEHE-ACC (SEQ ID NO: 11), Ac-LEH-ACC (SEQ ID NO: 12), Ac-LE-ACC, and Ac-L-ACC (note: Ac=acetyl).
To determine how each amino acid contributed to the selectivity of linker LEHELG (SEQ ID NO: 1), an ala scan was conducted. […] The cleavage rates of ala-substituted variants (P1-P6) were determined in mouse serum and in the periplasmic extracts from six strains of A. baumannii (FIG. 12).
Periplasmic extracts and mouse serum were not diluted prior to use in fluorescence assays and were allowed to undergo only one freeze-thaw cycle prior to use. […] The plate was sealed with a transparent polyolefin silicone film (Thermofisher™ Nuc™ Sealing Tape, 12-565-513) and placed in a plate reader at 37 °C with shaking at 225 rpm for 8 hours. […]

[2] = system: A. baumannii periplasmic extract; experiment: Release of ACC from Ac-Linker-ACC conjugates in A. baumannii periplasmic extract; format: biochemical; settings: role: substrate, 8 h
Method: as §1
To determine how each amino acid contributed to the selectivity of linker LEHELG (SEQ ID NO: 1), an ala scan was conducted. Each position of the LEHELG (SEQ ID NO: 1) linker was substituted with a single alanine, the simplest amino acid containing a stereocenter, to create six variants. The P1 position is the amino acid directly adjacent to the cleavage site, which is conjugated to the ACC turn-on fluorophore. The cleavage rates of ala-substituted variants (P1-P6) were determined in mouse serum and in the periplasmic extracts from six strains of A. baumannii (FIG. 12). […]
Periplasmic extracts and mouse serum were not diluted prior to use in fluorescence assays and were allowed to undergo only one freeze-thaw cycle prior to use. […]

K. pneumoniae MGH 78578 = experiment: MIC, broth microdilution; format: cell-based; settings: Klebsiella pneumoniae, MGH78578, MH-II broth, 16 h, 37 °C, dipyridyl 200 μM for siderophore conjugates
From the text: (§2) For full conjugate synthesis, the HMM siderophore (see FIG. 3) was chosen due to its ability to actively transport antibiotics into diverse bacteria. Solithromycin was chosen as a warhead to determine the quality of the cleavable linker in bacteria and to provide insight into the ability of the conjugate to actively transport through membranes. Solithromycin is a broad-spectrum antibiotic (G^+ and […]), and conjugates with this warhead require cleavage for activity, except in cases where the conjugate is actively transported to the cytoplasm, where the intact conjugate engages the target ribosome. When the minimum inhibitory concentration (MIC, minimum amount of drug to inhibit growth) of solithromycin equals the MIC of its cleavable L-linker conjugate, it indicates quantitative drug release, assuming the non-cleavable D-linker conjugate is not active (Table 1). D-linkers are not cleaved by most proteases.
(§3) Broth and Agar Preparation: Mueller-Hinton II (MH-II, cation-adjusted) broth was prepared from solid MH-II (22 g) and MilliQ H2O (1 L), which was autoclaved in a presterilized 1-L glass bottle. The autoclaved MH-II media contained dipyridyl (DP, 200 μM) for MIC assays involving siderophore conjugates. MH-II agar plates were prepared from autoclaved MH-II (22 g), Bacto agar (17 g), and MilliQ water (1 L). The bacterial strains were obtained from glycerol stocks.
(§4) Bacteria Culture Preparation: Bacteria were streaked on MH-II agar plates from glycerol stocks. The streaked plates were placed in an incubator at 37 °C without shaking for 18-hours. A sterilized pipet tip was gently touched on the surface of a single colony and added to autoclaved MH-II broth (5 mL) in a sterilized 14-mL culture tube. The cultures were incubated for 18 hours at 37 °C with shaking at 215 rpm. The cultures were diluted 200-fold into autoclaved MH-II broth (4 mL) and incubated at 37 °C with shaking at 215 rpm for 3-5 hours, or until an OD 600 of 0.5 was achieved. An aliquot of the culture (1 mL) was transferred to a sterilized culture tube and diluted with filter-sterilized PBS (~7 mL) until an OD600 of 0.13-0.15 was achieved. An aliquot ([…]) of the cultures was then transferred into MH-II media (15-mL) to achieve a concentration of 1×10^5 cells/mL. The diluted cultures (90 μL/well) were then added to substrate (10 μL at the following concentrations: 640 μg/mL, 320 μg/mL, 160 μg/mL, 80 μg/mL, 40 μg/mL, 20 μg/mL, 10 μg/mL, and 0 μg/mL in sterilized 96-well plates to achieve a final substrate concentration of 64 μg/mL, 32 μg/mL, 16 μg/mL, 8 μg/mL, 4 μg/mL, 2 μg/mL, 1 μg/mL, and 0 μg/mL. The 96-well plates were then sealed with sterilized gas-permeable covers. The plates were incubated at 37 °C with shaking at 215 rpm for 16 hours. Each well condition was prepared in triplicate, and each MIC assay was repeated on a different day. The turbidity of each well was examined visually and the MIC was counted as the lowest concentration that lacked turbidity.

S. typhi ATCC 700931 = experiment: MIC, broth microdilution; format: cell-based; settings: Salmonella enterica, MH-II broth, 16 h, 37 °C, dipyridyl 200 μM for siderophore conjugates
From the text: as §2, §3, §4

A. baumannii 5075 = experiment: MIC, broth microdilution; format: cell-based; settings: Acinetobacter baumannii, MH-II broth, 16 h, 37 °C, dipyridyl 200 μM for siderophore conjugates
From the text: as §2, §3, §4

E. coli K12 MG1655 = experiment: MIC, broth microdilution; format: cell-based; settings: Escherichia coli, MH-II broth, 16 h, 37 °C, dipyridyl 200 μM for siderophore conjugates
From the text: as §2, §3, §4

A baumannii WC487 = experiment: MIC, broth microdilution; format: cell-based; settings: Acinetobacter baumannii, MH-II broth, 16 h, 37 °C, dipyridyl 200 μM for siderophore conjugates
From the text: as §2, §3, §4

K. pneumoniae KPPR1 = experiment: MIC, broth microdilution; format: cell-based; settings: Klebsiella pneumoniae, MH-II broth, 16 h, 37 °C, dipyridyl 200 μM for siderophore conjugates
From the text: as §2, §3, §4

S. enterica 14028s = experiment: MIC, broth microdilution; format: cell-based; settings: Salmonella enterica, MH-II broth, 16 h, 37 °C, dipyridyl 200 μM for siderophore conjugates
From the text: as §2, §3, §4

E. aerogenes ATCC 13048 = experiment: MIC, broth microdilution; format: cell-based; settings: Klebsiella aerogenes, ATCC13048, MH-II broth, 16 h, 37 °C, dipyridyl 200 μM for siderophore conjugates
From the text: as §2, §3, §4

E. coli DCO = experiment: MIC, broth microdilution; format: cell-based; settings: Escherichia coli, MH-II broth, 16 h, 37 °C, dipyridyl 200 μM for siderophore conjugates
From the text: as §2, §3, §4

HL60 cells = experiment: Cell viability assay (MTT) in HL60 cells; format: cell-based; settings: Homo sapiens, HL-60, 24 h, 0.07-10 μM, FIG. 14
Method: Cell Culture: HL-60 cells were cultured at 37 °C in a 5% CO2 atmosphere. The cells were grown in Iscove's Modified Dulbecco's Medium, supplemented with 20% fetal bovine serum (FBS) and 0.1% penicillin-streptomycin. Media was replaced every other day until cells reached the desired confluency.
Viability Assay: HL-60 cells (4×10^3) were seeded in a 96-well plate in cell culture media (100 μL) for 24 hours at the atmosphere stated above (5% CO2). After incubation, the cells were treated with 10 μL of vehicle or drug (0.07-10 μM, n=6) for 24 hours at 37 °C. Cell viability was assessed using MTT. MTT media (30 μL, 5 mg/mL) was added to each well for 2 hours and plate was centrifuged at 500×g for 5 minutes after, followed by media aspiration. The formazan crystals left were solubilized in DMSO and absorbance (540 nm) was measured using a microplate reader (SpectraMax M5). Data obtained was normalized to the vehicle to generate final values. The graph plotted in FIG. 14 is depicted as the mean±SEM vs. compound concentration.

**Q.** Which “stability in serum / release of ACC in serum (in words)” value [1] does the source give for `CC(=O)N[C@@H](CC(C)C)C(=O)N[C@@H](CCC(=O)O)C(=O)N[C@@H](Cc1c[nH]cn1)C(=O)N[C@@H](CCC(=O)O)C(=O)N[C@@H](CC(C)C)C(=O)NCC(=O)Nc1ccc2c(CC(N)=O)cc(=O)oc2c1` [Ac-LEHELG-ACC, Ac-LEHELG(SEQ ID NO: 63)-ACC] (Ac-LEHELG-{ACC}) here?
**A.** Its value is “Minimal release of ACC; also recorded: highest stability in mouse serum compared to all ala-substituted variants”.

**Q.** And the “cleavage rate / release of ACC in periplasmic extract (in words)” value [2]?
**A.** Its value is “cleaving rapidly”.

**Q.** For `CC(=O)N[C@@H](CC(C)C)C(=O)N[C@@H](CCC(=O)O)C(=O)N[C@@H](C)C(=O)N[C@@H](CCC(=O)O)C(=O)N[C@@H](CC(C)C)C(=O)NCC(=O)Nc1ccc2c(CC(N)=O)cc(=O)oc2c1` [Ac-LEAELG-ACC, Ac-LEAELG(SEQ ID NO: 3)-ACC] (Ac-LEAELG-{ACC}), which “stability in serum / release of ACC in serum (in words)” value [1] is on record?
**A.** Its value is “did not show a significant loss of serum stability relative to the parent peptide”.

**Q.** And the “cleavage rate / release of ACC in periplasmic extract (in words)” value [2]?
**A.** Its value is “dramatically enhanced the cleavage rates in periplasmic extracts”.

**Q.** For `CC[C@H]1OC(=O)[C@@](C)(F)C(=O)[C@H](C)[C@@H](O[C@@H]2O[C@H](C)C[C@H](N(C)C)[C@H]2O)[C@](C)(OC)C[C@@H](C)C(=O)[C@H](C)[C@H]2N(CCCCn3cc(-c4cccc(N)c4)nn3)C(=O)O[C@]12C` [solithromycin], which MIC (K. pneumoniae MGH 78578) is on record?
**A.** Its MIC is 4 µM (≈ 3.38 µg/mL).

**Q.** What about the MIC (S. typhi ATCC 700931) of the same molecule?
**A.** Its MIC is 8 µM (≈ 6.76 µg/mL).

**Q.** And the MIC (A. baumannii 5075)?
**A.** The MIC was 8 µM (≈ 6.76 µg/mL).

**Q.** And the MIC (E. coli K12 MG1655)?
**A.** Its MIC is less than 1 µM.

**Q.** And the MIC (A baumannii WC487)?
**A.** Its MIC is 4 µM (≈ 3.38 µg/mL).

**Q.** What about the MIC (K. pneumoniae KPPR1) of the same molecule?
**A.** The MIC was 4 µM (≈ 3.38 µg/mL).

**Q.** And the MIC (S. enterica 14028s)?
**A.** The MIC was 8 µM (≈ 6.76 µg/mL).

**Q.** And the MIC (E. aerogenes ATCC 13048)?
**A.** Its MIC is 8 µM (≈ 6.76 µg/mL).

**Q.** And the MIC (E. coli DCO)?
**A.** The MIC was less than 1 µM.

**Q.** With `CO[C@@]12[C@H](COC(N)=O)C3=C(C(=O)C(C)=C(N)C3=O)N1C[C@@H]1N[C@@H]12` [mitomycin C, reference compound] as the molecule, how does the pEC50 (HL60 cells) read?
**A.** Its pEC50 is 6.00.
